The IC50 is the concentration that inhibits the measured activity by half. For orientation: EC50 means the concentration at which the effect is half-maximal.

The results in this text go back to patent US10604554B2, “Double-acylated GLP-1 derivatives” (Novo Nordisk A/S, priority 2012, dated 2020).

Assay [1] concerns the target T1, human GLP-1 receptor (Homo sapiens, UniProt P43220).
T1 construct: expressed in transfected cells; host or cells: BHK cells, clone FCW467-12A/KZ10-1 (parent line BHKTS13), further transfected with CRE luciferase
Put plainly: GLP-1 receptor binding (SPA, displacement of 125I-GLP-1). Summed up:
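Membranes from a stably transfected hamster cell line, 5-10 ug protein/sample, with WGA SPA beads and [125I]-GLP-1(7-36)NH2 at 0.06 nM final. Incubated 120 min at 30 °C with shaking, then counted.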
Background: In a radioligand displacement assay an active substance lowers the binding of a labelled ligand.

Assay [2] has as its target T1, human GLP-1 receptor. As to the kind of experiment: In vitro potency (CRE luciferase; whole cells). The format is cell-based. Details: EC50/pM (ratio 1% HSA/0% HSA): unit not given here. The following applies: for EC50: BHK cells. Summed up:
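Stably transfected BHK cells carrying human GLP-1R and a CRE–firefly luciferase reporter, 5×10^3 cells/well in assay medium, run with 0% or 1% HSA in assay buffer.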

Setting [3] is: Receptor binding affinity IC50 (high HSA), 2.0% HSA (high albumin).
The mark [4] stands for this setting: In vitro potency (CRE luciferase) EC50 (0% HSA), 0% HSA.
The mark [5] stands for this setting: In vitro potency (CRE luciferase) EC50 (1% HSA), 1% HSA.
[6] abbreviates: Receptor binding affinity IC50 (low HSA), 0.001% HSA (low albumin).

T1 sequence (P43220 24-463): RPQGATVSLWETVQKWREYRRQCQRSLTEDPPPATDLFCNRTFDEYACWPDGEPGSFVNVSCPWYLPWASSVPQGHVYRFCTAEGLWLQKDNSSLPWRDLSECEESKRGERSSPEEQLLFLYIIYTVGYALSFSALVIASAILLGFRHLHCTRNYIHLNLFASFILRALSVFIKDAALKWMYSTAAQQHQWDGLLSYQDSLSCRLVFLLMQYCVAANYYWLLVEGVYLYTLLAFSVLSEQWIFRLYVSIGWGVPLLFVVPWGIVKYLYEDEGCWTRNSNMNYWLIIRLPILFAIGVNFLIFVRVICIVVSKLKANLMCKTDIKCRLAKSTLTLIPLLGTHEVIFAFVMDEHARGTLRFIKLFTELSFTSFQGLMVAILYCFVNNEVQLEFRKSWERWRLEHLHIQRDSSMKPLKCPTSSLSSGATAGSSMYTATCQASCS

`CC[C@H](C)[C@H](NC(=O)[C@H](Cc1ccccc1)NC(=O)[C@H](CCC(=O)O)NC(=O)[C@H](CCCCNC(=O)[C@@H](N)CCCCNC(=O)[C@@H](N)CCCCNC(=O)CC[C@H](NC(=O)CC[C@H](NC(=O)CCCCCCCCCCOc1ccc(C(=O)O)cc1)C(=O)O)C(=O)O)NC(=O)[C@H](C)NC(=O)[C@H](C)NC(=O)[C@H](CCC(N)=O)NC(=O)CNC(=O)[C@H](CCC(=O)O)NC(=O)[C@H](CC(C)C)NC(=O)[C@H](Cc1ccc(O)cc1)NC(=O)[C@H](CO)NC(=O)[C@H](CO)NC(=O)[C@@H](NC(=O)[C@H](CC(=O)O)NC(=O)[C@H](CO)NC(=O)[C@@H](NC(=O)[C@H](Cc1ccccc1)NC(=O)[C@@H](NC(=O)CNC(=O)[C@H](CCC(=O)O)NC(=O)C(C)(C)NC(=O)[C@@H](N)Cc1c[nH]cn1)[C@@H](C)O)[C@@H](C)O)C(C)C)C(=O)N[C@@H](C)C(=O)N[C@@H](Cc1c[nH]c2ccccc12)C(=O)N[C@@H](CC(C)C)C(=O)N[C@H](C(=O)N[C@@H](CCCNC(=N)N)C(=O)NCC(=O)N[C@@H](CCCNC(=N)N)C(=O)N[C@@H](CCCCNC(=O)[C@@H](N)CCCCNC(=O)[C@@H](N)CCCCNC(=O)CC[C@H](NC(=O)CC[C@H](NC(=O)CCCCCCCCCCOc1ccc(C(=O)O)cc1)C(=O)O)C(=O)O)C(=O)O)C(C)C` [Example 38, N^ε26-[(2S)-2-amino-6-[[(2S)-2-amino-6-[[(4S)-4-carboxy-4-[[(4S)-4-carboxy-4-[11-(4-carboxyphenoxy)undecanoylamino]butanoyl]amino]butanoyl]amino]hexanoyl]amino]hexanoyl], N^ε37-[(2S)-2-amino-6-[[(2S)-2-amino-6-[[(4S)-4-carboxy-4-[[(4S)-4-carboxy-4-[11-(4-carboxyphenoxy)undecanoylamino]butanoyl]amino]butanoyl]amino]hexanoyl]amino]hexanoyl]-[Aib^8,Arg^34,Lys^37]-GLP-1-(7-37)-peptide] gave an IC50 on human GLP-1 receptor [1] (setting [3]) of 53 nM. For the same molecule, the EC50 at human GLP-1 receptor [2] (setting [4]) was 0.0076 nM; at human GLP-1 receptor [2] (setting [5]) it was 0.189 nM.

Regarding `CC[C@H](C)[C@H](NC(=O)[C@H](Cc1ccccc1)NC(=O)[C@H](CCC(=O)O)NC(=O)[C@H](CCCCNC(=O)[C@@H](N)CCCCNC(=O)CC[C@H](NC(=O)CC[C@H](NC(=O)CC[C@H](NC(=O)CCCCCCCCCCOc1ccc(C(=O)O)cc1)C(=O)O)C(=O)O)C(=O)O)NC(=O)[C@H](C)NC(=O)[C@H](C)NC(=O)[C@H](CCC(N)=O)NC(=O)CNC(=O)[C@H](CCC(=O)O)NC(=O)[C@H](CC(C)C)NC(=O)[C@H](Cc1ccc(O)cc1)NC(=O)[C@H](CO)NC(=O)[C@H](CO)NC(=O)[C@@H](NC(=O)[C@H](CC(=O)O)NC(=O)[C@H](CO)NC(=O)[C@@H](NC(=O)[C@H](Cc1ccccc1)NC(=O)[C@@H](NC(=O)CNC(=O)[C@H](CCC(=O)O)NC(=O)C(C)(C)NC(=O)[C@@H](N)Cc1c[nH]cn1)[C@@H](C)O)[C@@H](C)O)C(C)C)C(=O)N[C@@H](C)C(=O)N[C@@H](Cc1c[nH]c2ccccc12)C(=O)N[C@@H](CC(C)C)C(=O)N[C@H](C(=O)N[C@@H](CCCNC(=N)N)C(=O)NCC(=O)N[C@@H](CCCNC(=N)N)C(=O)N[C@@H](CCCCNC(=O)[C@@H](N)CCCCNC(=O)CC[C@H](NC(=O)CC[C@H](NC(=O)CC[C@H](NC(=O)CCCCCCCCCCOc1ccc(C(=O)O)cc1)C(=O)O)C(=O)O)C(=O)O)C(=O)O)C(C)C` [Example 39, N^ε26-[(2S)-2-amino-6-[[(4S)-4-carboxy-4-[[(4S)-4-carboxy-4-[[(4S)-4-carboxy-4-[11-(4-carboxyphenoxy)undecanoylamino]butanoyl]amino]butanoyl]amino]butanoyl]amino]hexanoyl], N^ε37-[(2S)-2-amino-6-[[(4S)-4-carboxy-4-[[(4S)-4-carboxy-4-[[(4S)-4-carboxy-4-[11-(4-carboxyphenoxy)undecanoylamino]butanoyl]amino]butanoyl]amino]butanoyl]amino]hexanoyl]-[Aib^8,Arg^34,Lys^37]-GLP-1-(7-37)-peptide], the IC50 at human GLP-1 receptor [1] (setting [3]) was 131 nM; on human GLP-1 receptor [1] (setting [6]), 0.06 nM. Moreover, the values for the EC50 at human GLP-1 receptor [2] (setting [4]) and on human GLP-1 receptor [2] (setting [5]) were 0.0037 nM and 0.14 nM, respectively. Also, at human GLP-1 receptor [2] (ratio of EC50 at 1% HSA to EC50 at 0% HSA), the “EC50/pM (ratio 1% HSA/0% HSA)” value is listed as 38.

Consider `CC[C@H](C)[C@H](NC(=O)[C@H](Cc1ccccc1)NC(=O)[C@H](CCC(=O)O)NC(=O)[C@H](CCCCNC(=O)[C@@H](N)CCCCNC(=O)CC[C@H](NC(=O)CC[C@H](NC(=O)CCCCCCCCCCOc1ccc(C(=O)O)cc1)C(=O)O)C(=O)O)NC(=O)[C@H](C)NC(=O)[C@H](C)NC(=O)[C@H](CCC(N)=O)NC(=O)CNC(=O)[C@H](CCC(=O)O)NC(=O)[C@H](CC(C)C)NC(=O)[C@H](Cc1ccc(O)cc1)NC(=O)[C@H](CO)NC(=O)[C@H](CO)NC(=O)[C@@H](NC(=O)[C@H](CC(=O)O)NC(=O)[C@H](CO)NC(=O)[C@@H](NC(=O)[C@H](Cc1ccccc1)NC(=O)[C@@H](NC(=O)CNC(=O)[C@H](CCC(=O)O)NC(=O)C(C)(C)NC(=O)[C@@H](N)Cc1c[nH]cn1)[C@@H](C)O)[C@@H](C)O)C(C)C)C(=O)N[C@@H](C)C(=O)N[C@@H](Cc1c[nH]c2ccccc12)C(=O)N[C@@H](CC(C)C)C(=O)N[C@H](C(=O)N[C@@H](CCCNC(=N)N)C(=O)NCC(=O)N[C@@H](CCCNC(=N)N)C(=O)N[C@@H](CCCCNC(=O)[C@@H](N)CCCCNC(=O)CC[C@H](NC(=O)CC[C@H](NC(=O)CCCCCCCCCCOc1ccc(C(=O)O)cc1)C(=O)O)C(=O)O)C(=O)O)C(C)C` [Example 40, N^ε26-[(2S)-2-amino-6-[[(4S)-4-carboxy-4-[[(4S)-4-carboxy-4-[11-(4-carboxyphenoxy)undecanoylamino]butanoyl]amino]butanoyl]amino]hexanoyl], N^ε37-[(2S)-2-amino-6-[[(4S)-4-carboxy-4-[[(4S)-4-carboxy-4-[11-(4-carboxyphenoxy)undecanoylamino]butanoyl]amino]butanoyl]amino]hexanoyl]-[Aib^8,Arg^34,Lys^37]-GLP-1-(7-37)-peptide], for which the IC50 was 195 nM at human GLP-1 receptor [1] (setting [3]) and 0.03 nM on human GLP-1 receptor [1] (setting [6]). Moreover, the EC50 on human GLP-1 receptor [2] (setting [4]) came out at 0.0026 nM.
